Experiments:
CYP3A4 = test: Clinical drug-drug interaction study (Study BGB-3111-108), CYP3A4; assay type: in vivo; conditions: clinical drug-drug interaction study BGB-3111-108
[1] = system: patients with B-cell malignancies; conditions: 320 mg per day (160 mg twice a day); cited from earlier work
CYP2C19 = test: Clinical drug-drug interaction study (Study BGB-3111-108), CYP2C19; assay type: in vivo; conditions: clinical drug-drug interaction study BGB-3111-108

C=CC(=O)N1CCC([C@@H]2CCNc3c(C(N)=O)c(-c4ccc(Oc5ccccc5)cc4)nn32)CC1 [zanubrutinib, (S)-7-(1-acryloylpiperidin-4-yl)-2-(4-phenoxyphenyl)-4,5,6,7-tetrahydropyrazolo[1,5-a]pyrimidine-3-carboxamide]
CYP3A4 induction (CYP3A4): mild inducer | efficacy in patients with B-cell malignancies [1]: efficacious | tolerability in patients with B-cell malignancies [1]: well tolerated | CYP2C19 induction (CYP2C19): mild inducer

From patent publication US20250249010A1, “METHODS FOR TREATING PRIMARY MEMBRANOUS NEPHROPATHY” (BEIGENE SWITZERLAND GMBH, priority 2022, published 2025)
